Data on two compounds can be found in patent EP4810038A1, “METHOD FOR TREATING ALK-POSITIVE OR ROS1-POSITIVE NON-SMALL CELL LUNG CANCER” (Shenzhen TargetRx Co., Ltd., priority 2023, dated 2025).

The conditions of series [1]: 100 mg of lorlatinib, GM (%CV), cited from earlier work.
Series [2] concerns Ba/F3 (SLC34A2-ROS1 G2032R) cell line. Briefly: Anti-tumor effect in subcutaneous transplanted Ba/F3 (SLC34A2-ROS1 G2032R) model. Format: in vivo, NOD-SCID mice. To be noted: 100 mg/kg p.o. once daily; 21st day after administration.
Excerpt: Housing environment: SPF grade.
Environmental conditions of the housing room of the laboratory animals: All the laboratory animals were housed in individually ventilated cages with constant temperature and constant humidity. […] The animals were continuously provided with cobalt-60 irradiated complete pelleted mouse feed with unlimited free access. The animals drank tap water (used after being autoclaved), which was provided continuously from water bottles, allowing for free access. The cages for raising the mice were polysulfone mice cages, which were autoclaved before use, and measured 325 mm × 210 mm × 180 mm. The bedding was autoclaved corn cobs. Each cage contained 5 animals. The cage cards were marked with the IACUC approval number, experiment number, start time of the experiment, project leader, experimenters, source of the animals, group, and animal number. The laboratory animals were marked with ear tags or ear labels.
The Ba/F3 (SLC34A2-ROS1 G2032R) cells in the exponential growth phase were collected, resuspended in PBS to a suitable concentration, and then subcutaneously inoculated into nude mice for tumor formation.
Assay method: Female NOD/SCID mice were subcutaneously inoculated with 2×10^6 Ba/F3 (SLC34A2-ROS1 G2032R) cells on the right side to establish a subcutaneous tumor transplantation model. […] The mice were administered orally via gavage once daily. The efficacy was evaluated based on the relative tumor growth inhibition rate (TGI), and the safety was evaluated based on the changes in the body weight and mortality of the animals.
All the procedures, including drug administration, tumor measurement, weight measurement, etc., were performed in a biosafety cabinet or on a clean bench.
The relative tumor growth rate (T/C%) was the percentage value of the relative tumor volume between a treatment group and the control group at a certain time point, or the percentage value of the tumor weight between a treatment group and the control group. The calculation formula was: T/C% = TRTV / CRTV × 100% (TRTV: the average RTV of the treatment group; CRTV: the average RTV of the solvent control group; RTV = Vt / V0, wherein V0 is the tumor volume of the animal at the time of grouping, and Vt is the tumor volume of the animal after treatment); or T/C% = TTW / CTW × 100% (TTW: the average tumor weight at the end of the assay in the treatment group; CTW: the average tumor weight at the end of the assay in the solvent control group).
Statistical analysis: To compare the tumor volume on a given day across the different treatment groups, we first used the Bartlett's test to verify the assumption of homogeneity of variance among all the groups. When the p-value of the Bartlett's test was not less than 0.05, one-way ANOVA was used to test whether the means of all the groups were equal. If the p-value of the one-way ANOVA was less than 0.05, we would use the Tukey's HSD test for the pairwise comparisons between all the groups, or use the Dunnett's test for a pairwise comparison between each treatment group and the control group. When the p-value of the Bartlett's test was less than 0.05, the Kruskal-Wallis test was used to test whether the medians of all the groups were equal. […]

As to `C[C@H]1Oc2cc(cnc2N)-c2c(nn(C)c2C#N)CN(C)C(=O)c2ccc(F)cc21` [lorlatinib], in series [1] (Multiple administrations), the AR is 0.718(55)[11]; the AUC0-τ was 5946(46)[11] h*ng/ mL; the “Cmax, SS” value was 644.8(32)[11] ng/mL. In addition, in series [1] (Single administration), the AUC(0-inf) is 9590(11)[7] h*ng/ mL, the Cmax was 907.2(24) [7] ng/mL and the T1/2 was 20.0(22)[7] hour.

In series [2], `C[C@@H](Oc1cc(-c2cnn(C3CCNCC3)c2)cnc1N)c1c(Cl)ccc(F)c1Cl` [crizotinib, reference compound] returned an average tumor volume of 1651.66 mm^3.
